Source: patent US5763453A, “Condensed indan derivatives and salts thereof” (Taiho Pharmaceutical Co., Ltd., priority 1995, dated 1998)
Values after ≈ are worked out from the molar mass of the structure shown. Structures can show the parent of a compound that is named as a salt.

tested on: P 388 mouse leukemia cell line; assay: Cytocidal effect on P 388 mouse leukemia cells (crystal violet cytometry, three days' incubation); type: cell-based; settings: P388, 72 h, 2×10^3 cells/well, read-out: IC50 (concentration at which the cell count is 50% less than that of the control)
Procedure: Cytocidal Effect A 96-well plate was innoculated with 2×10^3 cells/well of P 388 mouse leukemia cell line. The compound of the present invention was dissoved in purified water or dimethylsulfoxide, and the solution was diluted with medium to various concentrations and placed into respective wells and incubated. After three day's incubation, the plate was fixed with glutaraldehyde and stained with crystal violet for cytometry.

| SMILES | IC50 |
| --- | --- |
| CN(C)CCNc1c2c(nc3ccccc13)-c1cc(O)ccc1C2=O [Compound 3-a] | 0.15 µg/mL (≈ 0.45 µM) |
| CN1CCN(c2c3c(nc4ccc(O)cc24)-c2ccccc2C3=O)CC1 [Compound 14] | 0.22 µg/mL (≈ 0.637 µM) |
| CN(C)CCNc1c2c(nc3ccc(O)cc13)-c1ccccc1C2=O [Compound 12] | 0.16 µg/mL (≈ 0.48 µM) |
| COc1ccc2c(c1)C(=O)c1c-2nc2ccccc2c1NCCN(C)C.Cl.Cl [Compound 1, 10-(((dimethylamino)ethyl)amino)-2-methoxy-11H-indeno[1,2-b]quinolin-11-one dihydrochloride] | 0.34 µg/mL |
| CN(C)CCCNc1c2c(nc3cc(O)ccc13)-c1ccccc1C2=O [Compound 7-a] | 0.16 µg/mL (≈ 0.461 µM) |
| CN(C)CCNc1c2c(nc3cc(O)ccc13)-c1ccccc1C2=O [Compound 5] | 0.052 µg/mL (≈ 0.156 µM) |
| CCN(CC)CCSc1c2c(nc3ccc(O)cc13)-c1ccccc1C2=O [Compound 10-a] | 0.42 µg/mL (≈ 1.11 µM) |
| CN(C)CCNc1c2c(nc3ccccc13)-c1ccc(O)cc1C2=O.Cl.Cl [Compound 2, 10-(((dimethylamino)ethyl)amino)-2-hydroxy-11H-indeno[1,2-b]quinolin-11-one dihydrochloride] | 0.15 µg/mL |
| CCN(CC)CCOc1c2c(nc3ccc(O)cc13)-c1ccccc1C2=O [Compound 11, 10-(((diethylamino)ethoxy)-8-hydroxy-11H-indeno[1,2-b]quinolin-11-one hydrochloride] | 0.096 µg/mL |
| O=C1c2ccccc2-c2nc3ccc(O)cc3c(N3CCC(N4CCCCC4)CC3)c21 [Compound 16-a] | 0.43 µg/mL (≈ 1.04 µM) |
| COc1ccc2nc3c(c(N4CCN(C)CC4)c2c1)C(=O)c1ccccc1-3 [Compound 13] | 0.37 µg/mL (≈ 1.03 µM) |
| COc1ccc2c(NCCN(C)C)c3c(nc2c1)-c1ccccc1C3=O [Compound 4] | 0.25 µg/mL (≈ 0.72 µM) |
